This passage reports IC50 results from patent US9580416B2, “Inhibitors of Bruton's tyrosine kinase” (PHARMACYCLICS LLC, priority 2014, dated 2017).

Holding throughout (type): biochemical
Test [1] addresses Lck (Homo sapiens, UniProt P06239). Put plainly: Lck kinase activity, TR-FRET assay. The conditions noted are these: read-out: LCK (IC50). In short, it runs like this:
(§1)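 Enzyme (Btk 0.5 nM; Lck 6 nM) reacted 1 h with inhibitor, ATP at Km and biotin-peptide substrate in pH 7.4 buffer, 10% DMSO. Phosphopeptide detected by Eu-p-Tyr100 antibody plus streptavidin-APC (665/615 nm). IC50 calculated from fitted Ki(app) via ATP/Km correction plus half total enzyme.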
On the technique in general: In TR-FRET formats the signal depends on donor and acceptor labels being close together.

For test [2], the target named is EGFR (Homo sapiens, UniProt P00533). Put plainly: Inhibition of a panel of kinases, in vitro HotSpot kinase assay: EGFR. The method, then:
(§2) The degree of inhibition of a panel of kinases is determined using the in vitro HotSpot kinase assay (purified enzymes, ^33P-ATP, an appropriate substrate and 1 uM ATP).

For test [3], the target named is Btk (Homo sapiens, UniProt Q06187). Put plainly: Btk kinase activity, TR-FRET assay. Conditions: read-out: Btk (IC50). The essentials:
as §1

Test [4] deals with T1, JAK3 (Homo sapiens, UniProt P52333).
T1 sequence (P52333 1-1124): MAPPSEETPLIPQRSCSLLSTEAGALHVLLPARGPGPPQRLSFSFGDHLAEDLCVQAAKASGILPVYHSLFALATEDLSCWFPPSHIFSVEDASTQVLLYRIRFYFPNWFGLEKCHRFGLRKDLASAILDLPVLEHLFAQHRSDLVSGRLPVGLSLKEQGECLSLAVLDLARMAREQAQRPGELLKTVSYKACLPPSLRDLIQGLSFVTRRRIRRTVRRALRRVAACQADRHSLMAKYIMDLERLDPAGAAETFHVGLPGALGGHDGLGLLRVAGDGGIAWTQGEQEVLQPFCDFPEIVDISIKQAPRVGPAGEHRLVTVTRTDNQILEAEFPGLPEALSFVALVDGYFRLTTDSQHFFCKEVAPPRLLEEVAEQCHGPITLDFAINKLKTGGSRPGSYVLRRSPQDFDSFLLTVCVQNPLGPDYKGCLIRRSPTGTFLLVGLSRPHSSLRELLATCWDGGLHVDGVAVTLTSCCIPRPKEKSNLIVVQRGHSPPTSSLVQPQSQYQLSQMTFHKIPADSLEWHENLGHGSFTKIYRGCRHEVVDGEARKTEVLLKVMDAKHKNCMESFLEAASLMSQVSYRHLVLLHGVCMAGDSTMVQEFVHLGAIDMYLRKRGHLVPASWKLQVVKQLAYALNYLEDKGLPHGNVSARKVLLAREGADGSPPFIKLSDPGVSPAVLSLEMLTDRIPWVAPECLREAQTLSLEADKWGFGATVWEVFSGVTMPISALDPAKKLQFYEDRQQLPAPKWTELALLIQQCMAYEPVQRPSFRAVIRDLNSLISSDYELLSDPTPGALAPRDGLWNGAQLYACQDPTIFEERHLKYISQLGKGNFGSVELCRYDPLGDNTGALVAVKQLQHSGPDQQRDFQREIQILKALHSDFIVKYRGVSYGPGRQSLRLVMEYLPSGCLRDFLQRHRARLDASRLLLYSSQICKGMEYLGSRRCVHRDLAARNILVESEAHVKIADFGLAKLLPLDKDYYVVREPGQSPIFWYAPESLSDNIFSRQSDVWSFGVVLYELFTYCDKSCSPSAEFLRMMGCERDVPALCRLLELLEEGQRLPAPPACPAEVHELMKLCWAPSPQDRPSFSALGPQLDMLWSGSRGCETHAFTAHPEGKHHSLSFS
Put plainly: Inhibition of a panel of kinases, in vitro HotSpot kinase assay: JAK3. As to the method: as §2

EGFR, sequence (P00533 25-1210): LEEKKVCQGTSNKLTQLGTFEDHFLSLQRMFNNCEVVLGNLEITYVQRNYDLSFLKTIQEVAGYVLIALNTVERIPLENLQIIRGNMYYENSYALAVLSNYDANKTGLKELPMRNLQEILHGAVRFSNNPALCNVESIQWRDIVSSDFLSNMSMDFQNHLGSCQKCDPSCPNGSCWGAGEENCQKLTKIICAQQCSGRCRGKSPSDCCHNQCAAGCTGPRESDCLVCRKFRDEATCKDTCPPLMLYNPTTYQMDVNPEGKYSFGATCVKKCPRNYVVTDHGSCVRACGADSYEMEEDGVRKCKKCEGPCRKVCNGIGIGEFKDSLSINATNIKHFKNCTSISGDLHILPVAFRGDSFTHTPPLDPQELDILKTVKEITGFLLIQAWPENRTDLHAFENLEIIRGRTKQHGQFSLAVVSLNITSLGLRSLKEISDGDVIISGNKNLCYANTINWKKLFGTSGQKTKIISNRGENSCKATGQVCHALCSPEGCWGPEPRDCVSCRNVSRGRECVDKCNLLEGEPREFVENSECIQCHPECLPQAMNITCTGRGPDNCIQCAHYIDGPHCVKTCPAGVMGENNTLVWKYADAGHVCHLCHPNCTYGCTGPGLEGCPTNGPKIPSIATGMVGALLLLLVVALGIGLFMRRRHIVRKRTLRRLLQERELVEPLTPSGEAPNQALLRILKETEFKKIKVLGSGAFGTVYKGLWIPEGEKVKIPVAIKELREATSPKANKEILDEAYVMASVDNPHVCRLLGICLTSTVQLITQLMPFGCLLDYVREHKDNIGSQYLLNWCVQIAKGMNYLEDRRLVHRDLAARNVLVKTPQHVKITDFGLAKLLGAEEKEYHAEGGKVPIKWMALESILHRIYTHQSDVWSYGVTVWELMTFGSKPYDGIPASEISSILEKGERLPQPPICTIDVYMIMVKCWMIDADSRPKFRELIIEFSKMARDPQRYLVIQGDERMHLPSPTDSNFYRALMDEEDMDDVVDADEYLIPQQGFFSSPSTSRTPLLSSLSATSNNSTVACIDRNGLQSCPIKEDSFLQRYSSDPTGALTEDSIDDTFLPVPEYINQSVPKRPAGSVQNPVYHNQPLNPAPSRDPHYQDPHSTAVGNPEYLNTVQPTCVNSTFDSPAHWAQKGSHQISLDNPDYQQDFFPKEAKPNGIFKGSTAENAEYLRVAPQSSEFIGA
Lck, sequence (P06239 whole entry, species assumed): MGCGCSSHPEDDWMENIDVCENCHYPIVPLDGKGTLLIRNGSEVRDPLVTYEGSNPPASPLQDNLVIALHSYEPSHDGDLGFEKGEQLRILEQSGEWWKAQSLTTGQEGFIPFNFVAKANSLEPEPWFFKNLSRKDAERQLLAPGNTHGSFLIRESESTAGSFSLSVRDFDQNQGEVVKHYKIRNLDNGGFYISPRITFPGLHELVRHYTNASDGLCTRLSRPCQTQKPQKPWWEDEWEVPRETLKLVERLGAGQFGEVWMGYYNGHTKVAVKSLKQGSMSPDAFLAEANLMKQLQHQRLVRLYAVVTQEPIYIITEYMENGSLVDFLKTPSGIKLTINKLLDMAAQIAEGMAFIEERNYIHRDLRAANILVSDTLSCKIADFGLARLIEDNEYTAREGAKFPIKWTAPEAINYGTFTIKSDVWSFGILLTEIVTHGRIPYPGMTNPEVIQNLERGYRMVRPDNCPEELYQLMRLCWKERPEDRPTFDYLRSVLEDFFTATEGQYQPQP
Btk, sequence (Q06187 whole entry): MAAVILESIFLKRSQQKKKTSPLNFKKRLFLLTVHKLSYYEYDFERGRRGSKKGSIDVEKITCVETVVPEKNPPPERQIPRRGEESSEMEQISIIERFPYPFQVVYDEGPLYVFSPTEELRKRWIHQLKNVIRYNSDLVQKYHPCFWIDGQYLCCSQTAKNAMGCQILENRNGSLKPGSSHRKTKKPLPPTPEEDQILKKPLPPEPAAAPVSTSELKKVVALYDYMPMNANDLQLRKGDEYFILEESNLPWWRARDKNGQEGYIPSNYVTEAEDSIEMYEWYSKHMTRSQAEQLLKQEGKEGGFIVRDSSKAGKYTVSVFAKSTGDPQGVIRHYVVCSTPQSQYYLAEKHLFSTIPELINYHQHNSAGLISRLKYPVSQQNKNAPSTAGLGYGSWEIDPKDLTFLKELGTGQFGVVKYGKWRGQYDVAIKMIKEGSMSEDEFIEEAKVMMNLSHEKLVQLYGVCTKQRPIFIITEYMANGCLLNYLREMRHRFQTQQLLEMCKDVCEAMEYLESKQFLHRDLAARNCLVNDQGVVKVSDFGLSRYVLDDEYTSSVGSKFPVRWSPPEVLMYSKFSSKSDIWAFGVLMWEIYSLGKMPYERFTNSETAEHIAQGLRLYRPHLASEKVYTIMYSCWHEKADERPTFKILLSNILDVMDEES

Take `Cc1cc(NC(=O)c2cccc(Oc3ccnc4[nH]nc(N[C@@H]5CCCN(C(=O)C#CCO)C5)c34)c2)ccc1C(C)C` [compound 251, (R)-3-(3-(1-(4-hydroxybut-2-ynoyl)piperidin-3-ylamino)-1H-pyrazolo[3,4-b]pyridin-4-yloxy)-N-(4-isopropyl-3-methylphenyl)benzamide]: the IC50 – broadly, the concentration that gives 50% inhibition – is 100 to 1000 nM in test [1], below 100 nM in test [2], below 100 nM in test [3] and below 100 nM in test [4].

Take `Cc1ccnc(NC(=O)c2ccc(Oc3ccnc4[nH]nc(N[C@@H]5CCCN(S(C)(=O)=O)C5)c34)cc2)c1` [compound 269, (R)-N-(4-methylpyridin-2-yl)-4-(3-(1-(methylsulfonyl)piperidin-3-ylamino)-1H-pyrazolo[3,4-b]pyridin-4-yloxy)benzamide]: the IC50 in test [1] is 100 to 1000 nM; in test [2], 1000 to 10000 nM; in test [3], below 100 nM; in test [4] it was above 10000 nM.

As to `Cc1ccnc(NC(=O)c2ccc(Oc3ccnc4[nH]nc(N[C@@H]5CCCN(C(=O)C(N)=O)C5)c34)cc2)c1` [compound 270, (R)-4-(3-(1-(2-amino-2-oxoacetyl)piperidin-3-ylamino)-1H-pyrazolo[3,4-b]pyridin-4-yloxy)-N-(4-methylpyridin-2-yl)benzamide], the IC50 is 100 to 1000 nM in test [1], 100 to 1000 nM in test [2], below 100 nM in test [3] and above 10000 nM in test [4].

For `CCOP(=O)(CCCC(=O)N1CCC[C@@H](Nc2n[nH]c3nccc(Oc4ccc(C(=O)Nc5cc(C)ccn5)cc4)c23)C1)OCC` [compound 271, (R)-diethyl 4-(3-(4-(4-(4-methylpyridin-2-ylcarbamoyl)phenoxy)-1H-pyrazolo[3,4-b]pyridin-3-ylamino)piperidin-1-yl)-4-oxobutylphosphonate], the IC50 is 100 to 1000 nM in test [1], above 10000 nM in test [2], below 100 nM in test [3] and above 10000 nM in test [4].

As for `CCOP(=O)(CC(=O)N1CCC[C@@H](Nc2n[nH]c3nccc(Oc4ccc(C(=O)Nc5cc(C)ccn5)cc4)c23)C1)OCC` [compound 272, (R)-diethyl 2-(3-(4-(4-(4-methylpyridin-2-ylcarbamoyl)phenoxy)-1H-pyrazolo[3,4-b]pyridin-3-ylamino)piperidin-1-yl)-2-oxoethylphosphonate], the IC50 is 100 to 1000 nM in test [1], above 10000 nM in test [2], below 100 nM in test [3] and above 10000 nM in test [4].

In the case of `CCOP(=O)(CCC(=O)N1CCC[C@@H](Nc2n[nH]c3nccc(Oc4ccc(C(=O)Nc5cc(C)ccn5)cc4)c23)C1)OCC` [compound 273, (R)-diethyl 3-(3-(4-(4-(4-methylpyridin-2-ylcarbamoyl)phenoxy)-1H-pyrazolo[3,4-b]pyridin-3-ylamino)piperidin-1-yl)-3-oxopropylphosphonate], the IC50 is 1000 to 10000 nM in test [1], above 10000 nM in test [2], below 100 nM in test [3] and above 10000 nM in test [4].

For `COCCCC(=O)N1CCC[C@@H](Nc2n[nH]c3nccc(Oc4ccc(C(=O)Nc5cc(C)ccn5)cc4)c23)C1` [compound 274, (R)-4-(3-(1-(4-methoxybutanoyl)piperidin-3-ylamino)-1H-pyrazolo[3,4-b]pyridin-4-yloxy)-N-(4-methylpyridin-2-yl)benzamide], the IC50 in test [1] is 100 to 1000 nM; in test [2], above 10000 nM; in test [3], below 100 nM; in test [4] it was above 10000 nM.

As for `Cc1ccnc(NC(=O)c2ccc(Oc3ccnc4[nH]nc(N[C@@H]5CCN(C#N)C5)c34)cc2)c1` [compound 275, (R)-4-(3-(1-cyanopyrrolidin-3-ylamino)-1H-pyrazolo[3,4-b]pyridin-4-yloxy)-N-(4-methylpyridin-2-yl)benzamide], the IC50 was 100 to 1000 nM in test [1], 1000 to 10000 nM in test [2], below 100 nM in test [3] and above 10000 nM in test [4].

On to `Cc1ccnc(NC(=O)c2ccc(Oc3ccnc4[nH]nc(N[C@@H]5CCCN(C#N)C5)c34)cc2)c1` [compound 276, (R)-4-(3-(1-cyanopiperidin-3-ylamino)-1H-pyrazolo[3,4-b]pyridin-4-yloxy)-N-(4-methylpyridin-2-yl)benzamide], for which the IC50 in test [1] is 100 to 1000 nM; in test [2], 1000 to 10000 nM; in test [3], below 100 nM; in test [4], above 10000 nM.

As for `Cc1ccnc(NC(=O)c2ccc(Oc3ccnc4[nH]nc(NC5CCN(C(=O)C6(C#N)CC6)CC5)c34)cc2)c1` [compound 277, 4-(3-(1-(1-cyanocyclopropanecarbonyl)piperidin-4-ylamino)-1H-pyrazolo[3,4-b]pyridin-4-yloxy)-N-(4-methylpyridin-2-yl)benzamide], the IC50 was 1000 to 10000 nM in test [1], 1000 to 10000 nM in test [2], 100 to 1000 nM in test [3] and above 10000 nM in test [4].

For `Cc1ccnc(NC(=O)c2ccc(Oc3ccnc4[nH]nc(NC5CCN(C#N)CC5)c34)cc2)c1` [compound 278, 4-(3-(1-cyanopiperidin-4-ylamino)-1H-pyrazolo[3,4-b]pyridin-4-yloxy)-N-(4-methylpyridin-2-yl)benzamide], the IC50 in test [1] is 100 to 1000 nM; in test [2], 1000 to 10000 nM; in test [3], below 100 nM; in test [4], above 10000 nM.

Regarding `Cc1ccnc(NC(=O)c2ccc(Oc3ccnc4[nH]nc(N[C@@H]5CCN(C(=O)C6(C#N)CC6)C5)c34)cc2)c1` [compound 279, (R)-4-(3-(1-(1-cyanocyclopropanecarbonyl)pyrrolidin-3-ylamino)-1H-pyrazolo[3,4-b]pyridin-4-yloxy)-N-(4-methylpyridin-2-yl)benzamide], the IC50 was 1000 to 10000 nM in test [1], above 10000 nM in test [2], below 100 nM in test [3] and above 10000 nM in test [4].

Regarding `CC#CC(=O)N1CCC[C@@H](Nc2n[nH]c3nccc(Oc4ccc(C(=O)Nc5cc(C)ccn5)cc4)c23)C1` [compound 280, (R)-4-(3-(1-but-2-ynoylpiperidin-3-ylamino)-1H-pyrazolo[3,4-b]pyridin-4-yloxy)-N-(4-methylpyridin-2-yl)benzamide], the 50% inhibitory concentration (IC50) was 100 to 1000 nM in test [1], above 10000 nM in test [2], below 100 nM in test [3] and above 10000 nM in test [4].

Turning to `COCC#CC(=O)N1CCC[C@@H](Nc2n[nH]c3nccc(Oc4ccc(C(=O)Nc5cc(C)ccn5)cc4)c23)C1` [compound 281, (R)-4-(3-(1-(4-methoxybut-2-ynoyl)piperidin-3-ylamino)-1H-pyrazolo[3,4-b]pyridin-4-yloxy)-N-(4-methylpyridin-2-yl)benzamide], the 50% inhibitory concentration (IC50) in test [1] is 1000 to 10000 nM; in test [2], 1000 to 10000 nM; in test [3], below 100 nM; in test [4], 100 to 1000 nM.

In the case of `Cc1ccnc(NC(=O)c2ccc(Oc3ccnc4[nH]nc(N[C@@H]5CCCN(C(=O)C#CCO)C5)c34)cc2)c1` [compound 282, (R)-4-(3-(1-(4-hydroxybut-2-ynoyl)piperidin-3-ylamino)-1H-pyrazolo[3,4-b]pyridin-4-yloxy)-N-(4-methylpyridin-2-yl)benzamide], the IC50 in test [1] is 100 to 1000 nM; in test [2], 100 to 1000 nM; in test [3], below 100 nM; in test [4], 100 to 1000 nM.
